Laboratory results from US11236084B2, “Substituted azaindoline derivatives as NIK inhibitors” (Janssen Pharmaceutica NV, priority 2017, dated 2022).
Read-outs that look alike come from different tables or passages of the source.

Experiments:
[1] = system: P-IKKα levels in L363 (NIK translocated multiple myeloma) cells; assay: Biological Assay C: effect of compounds on P-IKKα levels in L363 (NIK translocated multiple myeloma) cells, performed at 2 locations; format: cell-based, human; details: averaged values
Experimental: Effect of Compounds on P-IKKα Levels in L363 (NIK Translocated Multiple Myeloma) Cells
All compounds tested were dissolved in DMSO and further dilutions were made in culture medium. Final DMSO concentration was 1% (v/v) in cell assays. The human L363 cells (ATCC) were cultured in RPMI 1640 medium supplemented with GlutaMax and 10% fetal calf serum (PAA). Cells were routinely maintained at densities of 0.2×10^6 cells per ml-1×10^6 cells per ml at 37° C. in a humidified 5% CO2 atmosphere. Cells were passaged twice a week splitting back to obtain the low density. Cells were seeded in 96 well plates (Nunc 167008) at 2×10^6 per ml media in a volume of 75 μl per well plus 25 μl […] recombinant human B-cell activating factor (BAFF/BLyS/TNFSF13B). Seeded cells were incubated at 37° C. in a humidified 5% CO2 atmosphere for 24 hr. Drugs and/or solvents were added (20 μl) to a final volume of 120 μl. Following 2 hr treatment plates were removed from the incubator and cell lysis was achieved by the addition of 30 μl 5× lysis buffer followed by shaking on a plate shaker at 4° C. for 10 min. At the end of this incubation lysed cells were centrifuged at 800×g for 20 min at 4° C. and the lysate was assessed for P-IKKα levels by sandwich immuno-assay carried out in anti-rabbit antibody coated Mesoscale plates. Within an experiment, the results for each treatment were the mean of 2 replicate wells. For initial screening purposes, compounds were tested using an 8 point dilution curve (serial 1:3 dilutions). For each experiment, controls (containing MG132 and BAFF but no test drug) and a blank incubation (containing MG132 and BAFF and 1 μM ADS125117, a test concentration known to give full inhibition) were run in parallel. The blank incubation value was subtracted from all control and sample values. To determine the IC50 a sigmoidal curve was fitted to the plot of % inhibition of control P-IKKα levels versus Log10 compound concentration.
Assay C was performed at 2 different locations.
Data for the compounds of the invention in the above assays are provided in Table A (the values in Table are averaged values over all measurements on all batches of a compound; values as IC50 (nM)). (‘n.c.’ means not calculated: ‘Co.’ means compound)

[2] = biological target: recombinant human NF-kappaB-inducing kinase (NIK/MAP3K14) (Homo sapiens, UniProt Q99558); assay: Biological Assay B: inhibition of auto-phosphorylation of recombinant human NIK/MAP3K14 (AlphaScreen), performed at 2 locations; format: biochemical; details: averaged values
How it was run: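 Run at two separate sites: 1 h, 25° C. reactions containing 0.2 nM GST-NIK, 25 microM ATP and compound (1% DMSO) in Tris pH 7.5/MgCl2 buffer. Phosphorylation detected via anti-phospho-IKK Ser176/180 antibody with AlphaScreen beads; IC50 fitted to % inhibition.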

[3] = Homo sapiens, L-363, location 2, L363 cells, P-IKKα levels, read-out: Assay C location 2 IC50
[4] = location 2, AlphaScreen auto-phosphorylation, read-out: Assay B location 2 IC50
[5] = Homo sapiens, L-363, 2 h, location 1, P-IKKα levels in L363 cells, 2 hr treatment, read-out: Assay C location 1 IC50
[6] = location 1, NIK auto-phosphorylation, AlphaScreen, read-out: Assay B location 1 IC50
[7] = Homo sapiens, L-363, location 1, L363 cells, P-IKKα levels, read-out: Assay C location 1 IC50
[8] = location 1, AlphaScreen auto-phosphorylation, read-out: Assay B location 1 IC50

recombinant human NF-kappaB-inducing kinase (NIK/MAP3K14), sequence (Q99558 whole entry): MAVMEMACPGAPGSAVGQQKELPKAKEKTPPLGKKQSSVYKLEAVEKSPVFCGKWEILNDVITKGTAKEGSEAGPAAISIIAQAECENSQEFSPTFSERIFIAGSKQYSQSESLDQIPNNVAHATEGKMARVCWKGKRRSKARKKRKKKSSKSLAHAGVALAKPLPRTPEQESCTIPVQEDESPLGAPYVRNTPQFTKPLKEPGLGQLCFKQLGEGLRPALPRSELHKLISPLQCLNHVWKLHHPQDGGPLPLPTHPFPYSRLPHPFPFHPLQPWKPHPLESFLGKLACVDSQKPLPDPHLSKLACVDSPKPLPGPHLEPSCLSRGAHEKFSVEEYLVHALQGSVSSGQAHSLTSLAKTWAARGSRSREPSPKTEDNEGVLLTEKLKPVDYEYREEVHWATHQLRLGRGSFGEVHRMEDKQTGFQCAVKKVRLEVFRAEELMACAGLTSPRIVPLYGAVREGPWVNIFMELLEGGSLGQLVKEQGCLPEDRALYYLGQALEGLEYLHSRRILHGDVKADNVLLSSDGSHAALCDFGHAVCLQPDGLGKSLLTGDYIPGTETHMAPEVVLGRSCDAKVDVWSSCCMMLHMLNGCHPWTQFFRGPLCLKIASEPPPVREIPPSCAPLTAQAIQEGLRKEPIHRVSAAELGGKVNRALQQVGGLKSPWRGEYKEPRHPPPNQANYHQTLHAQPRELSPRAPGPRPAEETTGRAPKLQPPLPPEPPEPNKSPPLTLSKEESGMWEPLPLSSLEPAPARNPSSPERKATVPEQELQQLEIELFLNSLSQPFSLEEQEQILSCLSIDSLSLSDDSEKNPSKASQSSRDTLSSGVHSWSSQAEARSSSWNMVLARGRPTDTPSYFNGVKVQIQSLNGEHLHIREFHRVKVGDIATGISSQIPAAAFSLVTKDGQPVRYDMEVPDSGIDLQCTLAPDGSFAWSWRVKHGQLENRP

SMILES | IC50 [1, 3] [µM] | IC50 [2, 4] [µM] | IC50 [1, 7] [µM] | IC50 [2, 8] [µM] | other results
COc1cc(C(=O)N2CCCC(OC)CC2)ccc1Nc1nccc(-c2cnc3c(c2)C(C)(CO)CN3)n1 (stereo not drawn) [Compound 150] | 0.105 | 0.0054 | – | – | –
COc1cc(S(C)(=O)=O)c(F)cc1Nc1nccc(-c2cnc3c(c2)C(C)(C)CN3)n1 [Compound 342] | – | – | – | – | IC50 [1, 5]: 0.155 µM; IC50 [2, 6]: 0.0079 µM; IC50 ([2]; location 2, NIK auto-phosphorylation, AlphaScreen, read-out: Assay B location 2 IC50): 0.0046 µM
COc1cc(C(=O)N2CCCC2)ccc1Nc1nccc(-c2cnc3c(c2)C(C)(CO)CN3)n1 (stereo not drawn) [Compound 138] | 0.234 | 0.0063 | – | – | –
CN1CCC(Oc2ccc(Cl)cc2Nc2nccc(-c3cnc4c(c3)C(C)(C)CN4)n2)CC1 [Compound 338] | – | – | – | – | IC50 [1, 5]: 3.89 µM; IC50 [2, 6]: 0.0191 µM
COc1cc(S(C)(=O)=O)c(F)cc1Nc1nccc(-c2cnc3c(c2)C(C)(CO)CN3)n1 (stereo not drawn) [Compound 12] | – | 0.0016 | 0.0269 | 0.0054 | –
COc1cc(C(=O)NC2CCOCC2)c(Cl)cc1Nc1nccc(-c2cnc3c(c2)C(C)(C)CN3)n1 [Compound 299] | – | 0.0009 | 0.0295 | 0.0032 | –
CC1(CO)CNc2ncc(-c3ccnc(Nc4ccc(C(=O)NC5CCOCC5)cc4OC(F)F)n3)cc21 (stereo not drawn) [Compound 140] | 1.07 | 0.0045 | – | – | –
COc1cc(N2CCC(O)CC2)c(Cl)cc1Nc1nccc(-c2cnc3c(c2)C(C)(CO)CN3)n1 (single isomer, unassigned) [Compound 343] | – | – | – | – | IC50 ([1]; location 1, P-IKKα levels in L363 cells, 2 hr treatment, read-out: Assay C location 1 IC50): ~7.41 µM; IC50 [2, 6]: 0.0191 µM
COc1cc(N2CCOCC2)c(C#N)cc1Nc1nccc(-c2cnc3c(c2)C(C)(CO)CN3)n1 (stereo not drawn) [Compound 4] | – | 0.0029 | 0.138 | 0.0105 | –
CN1CCC(Oc2ccc(Cl)cc2Nc2nccc(-c3cnc4c(c3)C(C)(CO)CN4)n2)CC1 (stereo not drawn) [Compound 15] | – | – | 0.479 | 0.0085 | –
CC(=O)NCc1cccc(Nc2nccc(-c3cnc4c(c3)C(C)(C)CN4)n2)c1C [Compound 42] | 0.166 | – | – | – | –
COc1cc(N2CCN(C)CC2)c(Cl)cc1Nc1nccc(-c2cnc3c(c2)C(C)(CO)CN3)n1 (stereo not drawn) [Compound 267] | – | 0.0005 | 0.0288 | 0.0047 | –
Cc1cc(C(=O)NC2CCN(C)CC2)ccc1Nc1nccc(-c2cnc3c(c2)C(C)(C)CN3)n1 [Compound 35] | 0.851 | – | – | – | –
COc1cc(C(=O)N2CCN(C)CC2)ccc1Nc1nccc(-c2cnc3c(c2)C(C)(CO)CN3)n1 (stereo not drawn) [Compound 143] | 0.224 | 0.0145 | – | 0.017 | –
COc1cc(C(=O)NC2CCOCC2)ccc1Nc1ncc(F)c(-c2cnc3c(c2)C(C)(CO)CN3)n1 (stereo not drawn) [Compound 2] | 0.0692 | – | – | 0.0055 | –
COc1cc(S(C)(=O)=O)c(Cl)cc1Nc1nccc(-c2cnc3c(c2)C(C)(CO)CN3)n1 (stereo not drawn) [Compound 331] | – | – | 0.0794 | 0.0065 | –
COc1cc(C(=O)NC2CCCOCC2)ccc1Nc1nccc(-c2cnc3c(c2)C(C)(CO)CN3)n1 (stereo not drawn) [Compound 142] | 0.204 | 0.0135 | 0.309 | – | –
COc1cc(C(=O)NC2CCOCC2)ccc1Nc1nccc(-c2cnc3c(c2)C(C)(CC#N)CN3)n1 (stereo not drawn) [Compound 147] | 0.0525 | 0.0041 | – | – | –
COc1cc(CNC(C)=O)ccc1Nc1nccc(-c2cnc3c(c2)C(C)(CO)CN3)n1 (stereo not drawn) [Compound 145] | 0.324 | 0.0072 | – | – | –
COc1cc(C(=O)NC2CCOCC2)c(Cl)cc1Nc1nccc(-c2cnc3c(c2)C(C)(CO)CN3)n1 (stereo not drawn) [Compound 8] | – | 0.0016 | 0.0083 | 0.0046 | –
COc1cc(C(=O)N2CCC(OC)CC2)ccc1Nc1nccc(-c2cnc3c(c2)C(C)(CC#N)CN3)n1 (stereo not drawn) [Compound 148] | 0.159 | 0.0048 | – | – | –
COc1cc(N2CC3(CCOCC3)C2)c(Cl)cc1Nc1nccc(-c2cnc3c(c2)C(C)(CO)CN3)n1 (single isomer, unassigned) [Compound 3S] | – | 0.0013 | 0.0173 | 0.0067 | –
CC1(CO)CNc2ncc(-c3ccnc(Nc4cc(Cl)ccc4S(C)(=O)=O)n3)cc21 (stereo not drawn) [Compound 335] | – | – | > 10 | 0.269 | –

SMILES | IC50 [1, 3] [µM] | IC50 [2, 4] [µM] | IC50 [1, 7] [µM] | IC50 [2, 8] [µM] | other results
CN1CCC(Oc2ccccc2Nc2nccc(-c3cnc4c(c3)C(C)(CO)CN4)n2)CC1 (stereo not drawn) [Compound 246] | – | 0.0178 | ~2 | 0.0309 | –
CC1(CO)CNc2ncc(-c3ccnc(Nc4ccccc4S(C)(=O)=O)n3)cc21 (stereo not drawn) [Compound 334] | – | – | > 10 | 3.98 | –
COc1cc(C(=O)N2CCCCC2)ccc1Nc1nccc(-c2cnc3c(c2)C(C)(CO)CN3)n1 (stereo not drawn) [Compound 139] | 0.102 | 0.0069 | 0.166 | 0.0069 | –
COc1ccccc1Nc1nccc(-c2cnc3c(c2)C(C)(CO)CN3)n1 (stereo not drawn) [Compound 151] | 0.676 | 0.0178 | ~0.912 | – | –
COc1cc(N2CC(OC)C2)c(Cl)cc1Nc1nccc(-c2cnc3c(c2)C(C)(CO)CN3)n1 (stereo not drawn) [Compound 269] | – | 0.0018 | 0.0417 | – | –
CN(C)CCOc1cc(N2CCOCC2)c(Cl)cc1Nc1nccc(-c2cnc3c(c2)C(C)(CO)CN3)n1 (single isomer, unassigned) [Compound 272] | – | 0.123 | 9.12 | 0.151 | –
COc1cc(N2CCOCC2)c(C#N)cc1Nc1nccc(-c2cnc3c(c2)C(C)(CO)CN3)n1 (single isomer, unassigned) [Compound 4S] | – | 0.0023 | ~0.151 | – | –
COc1cc(N2CCC(N(C)C)CC2)c(Cl)cc1Nc1nccc(-c2cnc3c(c2)C(C)(CO)CN3)n1 (stereo not drawn) [Compound 277] | – | 0.0004 | 0.0234 | ~0.003 | –
Cc1cc(C(=O)NC2CCOCC2)ccc1Nc1nccc(-c2cnc3c(c2)C(C)(C)CN3)n1 [Compound 36] | 0.617 | – | – | – | –
CC(=O)NCc1ccc(C)c(Nc2nccc(-c3cnc4c(c3)C(C)(C)CN4)n2)c1 [Compound 43] | 0.282 | – | – | – | –
COc1cc(C(=O)NC2CCOCC2)ccc1Nc1ncc(Cl)c(-c2cnc3c(c2)C(C)(CO)CN3)n1 (single isomer, unassigned) [Compound 351] | – | – | – | – | IC50 [2, 6]: 0.024 µM
COc1ccc(N2CCOCC2)cc1Nc1nccc(-c2cnc3c(c2)C(C)(CO)CN3)n1 (stereo not drawn) [Compound 241] | – | ~3.09 | – | 1.86 | –
COCCN1CCN(c2cc(OC)c(Nc3nccc(-c4cnc5c(c4)C(C)(CO)CN5)n3)cc2Cl)CC1 (stereo not drawn) [Compound 311] | – | 0.0009 | – | 0.0039 | –
COc1cc(N2CCOCC2)c(Cl)cc1Nc1nccc(-c2cnc3c(c2)C(C)(CO)CN3)n1 (single isomer, unassigned) [Compound 6R] | – | 0.0277 | – | 0.0191 | –
COc1cc(N2CCN(C3CC3)CC2)c(Cl)cc1Nc1nccc(-c2cnc3c(c2)C(C)(CO)CN3)n1 (stereo not drawn) [Compound 309] | – | 0.0022 | – | 0.0068 | –
CC1(C)CNc2ncc(-c3ccnc(Nc4ccc(C(=O)NC5CNC5)cc4)n3)cc21 [Compound 34] | – | 0.0016 | – | – | –
COc1cc(N2CCOCC2)c(F)cc1Nc1nccc(-c2cnc3c(c2)C(C)(C)CN3)n1 [Compound 282] | – | 0.0138 | – | 0.0776 | –
COc1cc(-c2ccn(C)n2)ccc1Nc1nccc(-c2cnc3c(c2)C(C)(CO)CN3)n1 (stereo not drawn) [Compound 192] | – | 0.0269 | – | – | –
CCOc1ccccc1Nc1nccc(-c2cnc3c(c2)C(C)(CO)CN3)n1 (stereo not drawn) [Compound 174] | – | 0.0324 | – | – | –
COc1ccc(C#N)cc1Nc1nccc(-c2cnc3c(c2)C(C)(CO)CN3)n1 (stereo not drawn) [Compound 190] | – | 0.0022 | – | – | –
COc1cc(N2CC3(CCOCC3)C2)c(Cl)cc1Nc1ncc(Cl)c(-c2cnc3c(c2)C(C)(CO)CN3)n1 (single isomer, unassigned) [Compound 348] | – | – | – | – | IC50 [2, 6]: 0.0148 µM
Cc1ccc(F)cc1Nc1nccc(-c2cnc3c(c2)C(C)(CO)CN3)n1 (stereo not drawn) [Compound 198] | – | 0.0085 | – | – | –
CCN1CCN(c2cc(OC)c(Nc3nccc(-c4cnc5c(c4)C(C)(CO)CN5)n3)cc2Cl)CC1 (single isomer, unassigned) [Compound 293] | – | 0.0005 | – | 0.0015 | –
